Results: patent publication US20250009777A1 (priority 2021, published 2025)
Like-named read-outs stand apart in the source and are kept apart here.

What was measured:
[1] = tested on: SARS-CoV-2 Wuhan strain; assay: Antiviral activity against SARS-CoV-2 Wuhan strain, same manner as Example 1; format: cell-based; conditions: for SI: CC50 relative to EC50
[2] = Cytotoxicity (CC50) of structural analogs, Table 4; format: cell-based; conditions: cell line not stated
Protocol: Measurement of the antiviral activity was conducted in the same manner as Example 1. […] Among these compounds, compounds (A2), (A4) and (A6) had satisfactory differences in the ECso and CCso concentration levels, indicating particular promise as antiviral agents.

[3] = tested on: DENV2; assay: Library screening for inhibition of cell death of flavivirus-infected cells; format: cell-based, dengue virus; conditions: compound library screening
Protocol: Using the compounds of a compound library based on nucleic acid compounds held by the Center for Research and Education on Drug Discovery, Hokkaido University, National University Corporation as test samples, screening was conducted for compounds having an effect in inhibiting cell death of cells infected with a flavivirus. DENV2 was used as the flavivirus.

[4] = in vitro; conditions: human
[5] = tested on: JEV; assay: microbe, parasite or virus in culture; format: cell-based; conditions: Japanese encephalitis virus, BHK-21, 72 h
[6] = tested on: CHIKV; assay: microbe, parasite or virus in culture; format: cell-based; conditions: Chikungunya virus, BHK-21
[7] = tested on: WNV; assay: microbe, parasite or virus in culture; format: cell-based; conditions: West Nile virus, BHK-21, 72 h
[8] = tested on: DENV4; assay: microbe, parasite or virus in culture; format: cell-based; conditions: Dengue virus, DENV4, BHK-21, 120 h
[9] = tested on: DENV1; assay: microbe, parasite or virus in culture; format: cell-based; conditions: Dengue virus, DENV1, BHK-21, 120 h
[10] = tested on: coronaviruses, flaviviruses and togaviruses; format: cell-based
[11] = tested on: DENV2; assay: microbe, parasite or virus in culture; format: cell-based; conditions: Dengue virus, DENV2, BHK-21, 96 h
[12] = in vitro; conditions: Syrian hamster
[13] = tested on: HCoV-229E; assay: microbe, parasite or virus in culture; format: cell-based; conditions: Human coronavirus 229E, MRC5
[14] = tested on: YFV; assay: microbe, parasite or virus in culture; format: cell-based; conditions: Yellow fever virus, BHK-21, 72 h
[15] = tested on: ZIKV; assay: microbe, parasite or virus in culture; format: cell-based; conditions: Zika virus, BHK-21, 72 h
[16] = tested on: HCoV-OC43; assay: microbe, parasite or virus in culture; format: cell-based, Human Coronavirus; conditions: Betacoronavirus 1, OC43, MRC5
[17] = tested on: AG129 mouse-adapted DENV2; format: in vivo, mice; conditions: for Survival rate: death = bodyweight below 70%; for day post virus infection until which all of the mice survived: death = bodyweight below 80% of initial, FIG. 2A
[18] = tested on: DENV3; assay: microbe, parasite or virus in culture; format: cell-based; conditions: Dengue virus, DENV3, BHK-21, 120 h
[19] = Severe acute respiratory syndrome coronavirus 2

## CSc1nc(=O)ccn1C1O[C@H](CO)[C@@H](O)[C@H]1O (stereo partly drawn) [Compound A3]
[1]
  SI: 1.2
[1]; [19]
  EC50: 4.67 µM
[2]
  CC50: 5.48 µM

## 2′,3′-O-isopropylidene-5′-O-isobutyryl-2-thiouridine [Compound A6]
[1]
  EC50: 3.93 µM
  SI: 4.9
[2]
  CC50: 19.4 µM

## O=c1ccn([C@@H]2O[C@H](CO)[C@@H](O)[C@H]2O)c(=[Se])[nH]1 [Compound A2, 2-selenouridine]
[1]
  SI: >2.7
[1]; [19]
  EC50: 7.37 µM
[2]
  CC50: > 20 µM

## 2′,3′-O-isopropylidene-5′-O-propynyl-2-thiouridine [Compound A5]
[1]
  EC50: 7.56 µM
  SI: 1.6
[2]
  CC50: 11.9 µM

## O=c1ccn([C@@H]2O[C@H](CO)[C@@H](O)[C@H]2O)c(=S)[nH]1 [2-thiouridine]
[3]
  antiviral activity (inhibiting cell death of infected cells): exhibited antiviral activity
[4]
  CC50: > 50 µM
[5]
  EC50: 4.8 µM
[6]
  EC50: 8.2 µM
[7]
  EC50: 5.3 µM
[8]
  EC50: 1.7 µM
[9]
  EC50: 2.4 µM
[10]
  relative viral RNA level: decreased
[11]
  EC50: 1.5 µM
[12]
  CC50: > 50 µM
[13]
  EC50: 0.77 µM
[14]
  EC50: 2.9 µM
[15]
  EC50: 5 µM
[16]
  EC50: 13 µM
[17]; 50 mg/kg (n=8) and 150 mg/kg (n=9) groups compared with vehicle, in words
  survival rate for the virus-infected mice: increased in a dosage-dependent manner
[17]; 50 mg/kg oral twice per day, n = 8, day 0 post infection
  Survival rate: 100%
[17]; 50 mg/kg oral twice per day, n = 8, day 1 post infection
  Survival rate: 100%
[17]; 50 mg/kg oral twice per day, n = 8, day 2 post infection
  Survival rate: 100%
[17]; 50 mg/kg oral twice per day, n = 8, day 3 post infection
  Survival rate: 100%
[17]; 50 mg/kg oral twice per day, n = 8, day 4 post infection
  Survival rate: 100%
[17]; 50 mg/kg oral twice per day, n = 8, day 5 post infection
  Survival rate: 100%
[17]; 50 mg/kg oral twice per day, n = 8, day 6 post infection
  Survival rate: 100%
[17]; 50 mg/kg oral twice per day, n = 8, day 7 post infection
  Survival rate: 100%
[17]; 50 mg/kg oral twice per day, n = 8, day 8 post infection
  Survival rate: 100%
[17]; 50 mg/kg oral twice per day, n = 8, day 9 post infection
  Survival rate: 100%
[17]; 50 mg/kg oral twice per day, n = 8, day 10 post infection
  Survival rate: 100%
[17]; 50 mg/kg oral twice per day, n = 8, day 11 post infection
  Survival rate: 75%
[17]; 50 mg/kg oral twice per day, n = 8, day 12 post infection
  Survival rate: 50%
[17]; 50 mg/kg oral twice per day, n = 8, day 13 post infection
  Survival rate: 37.5%
[17]; 50 mg/kg oral twice per day, n = 8, day 14 post infection
  Survival rate: 37.5%
[17]; 50 mg/kg oral twice per day, n = 8, day 15 post infection
  Survival rate: 0%
[17]; 50 mg/kg orally twice per day for 5 days, n=3
  day post virus infection until which all of the mice survived: 12 days
[17]; 150 mg/kg oral twice per day, n = 9, day 0 post infection
  Survival rate: 100%
[17]; 150 mg/kg oral twice per day, n = 9, day 1 post infection
  Survival rate: 100%
[17]; 150 mg/kg oral twice per day, n = 9, day 2 post infection
  Survival rate: 100%
[17]; 150 mg/kg oral twice per day, n = 9, day 3 post infection
  Survival rate: 100%
[17]; 150 mg/kg oral twice per day, n = 9, day 4 post infection
  Survival rate: 100%
[17]; 150 mg/kg oral twice per day, n = 9, day 5 post infection
  Survival rate: 100%
[17]; 150 mg/kg oral twice per day, n = 9, day 6 post infection
  Survival rate: 100%
[17]; 150 mg/kg oral twice per day, n = 9, day 7 post infection
  Survival rate: 100%
[17]; 150 mg/kg oral twice per day, n = 9, day 8 post infection
  Survival rate: 100%
[17]; 150 mg/kg oral twice per day, n = 9, day 9 post infection
  Survival rate: 100%
[17]; 150 mg/kg oral twice per day, n = 9, day 10 post infection
  Survival rate: 100%
[17]; 150 mg/kg oral twice per day, n = 9, day 11 post infection
  Survival rate: 88.89%
[17]; 150 mg/kg oral twice per day, n = 9, day 12 post infection
  Survival rate: 88.89%
[17]; 150 mg/kg oral twice per day, n = 9, day 13 post infection
  Survival rate: 66.67%
[17]; 150 mg/kg oral twice per day, n = 9, day 14 post infection
  Survival rate: 66.67%
[17]; 150 mg/kg oral twice per day, n = 9, day 15 post infection
  Survival rate: 66.67%
[17]; 150 mg/kg oral twice per day, n = 9, day 16 post infection
  Survival rate: 66.67%
[17]; 150 mg/kg orally twice per day for 5 days, n=4
  day post virus infection until which all of the mice survived: 15 days
[18]
  EC50: 2 µM

## O=c1ccn(C2O[C@H](CO)[C@@H](O)[C@H]2O)c(=NO)[nH]1 (stereo partly drawn) [Compound A4]
[1]
  SI: 7.5
[1]; [19]
  EC50: 0.81 µM
[2]
  CC50: 6.04 µM
